From patent US4535081A, “Antiallergic and antiulcer 1-oxo-1H-thiazolo[3,2-a]pyrimidine-2-carboxamides and intermediates therefor” (Pfizer Inc., priority 1983, dated 1985)
Several values for one entry are separate records, joined by “and”; a condition that tells them apart may be missing. Equal entries are not always repeated. Entries after “also recorded” stand apart in the source; their conditions may differ.

Key:
[1] = system: cold-restraint stress gastric ulcer; experiment: Cold-restraint stressed rat ulcer assay; type: in vivo
Procedure: The effectiveness of the products of this invention as anticulcer agents is determined by the so-called cold-restraint stressed rat assay. In this test non-fasted female rats (Charles River C-D strain) weighing 70-140 gms. are administered the drug or carrier (control animals) intraperitoneally (in saline solution containing 1% carboxymethylcellulose and 0.1% Tween 80) or orally (in water) three hours before being lightly anesthetized with ether and taped in the supine position to individual sheets of plexiglass. After recovery from anesthesia, the restrained animals are positioned horizontally in a refrigerator maintained at 10°-12° C. and three hours later sacrificed by cervical dislocation. The abdomen of each rat is opened, the pylorus clamped, the stomach inflated with saline via an oral tube, the esophagus clamped and the stomach excised. The stomachs are placed in a 0.4% formaldehyde solution for approximately 30 seconds to harden the outer layers and facilitate examination. Each stomach is then cut open along the greater curvature and the glandular portion (hind stomach) examined for damage. The number of gastric erosions, their severity and the color of the stomachs is recorded. […]

[2] = system: ethanol-induced ulcer; experiment: Ethanol-induced rat ulcer assay; type: in vivo; details: oral, 5 mg./kg.; Table III; listed as Formula I: (CH2)4
Procedure: Alternatively, the effectiveness of the products of this invention as antiulcer agents is determined in an ethanol-induced rat ulcer assay. In this test, overnight fasted male rats are given drug (5 mg./kg.) or water orally fifteen minutes prior to an orally administered dose of absolute ethanol (1.0 ml.). One hour after the ethanol challenge the animals (8/group) are killed and the stomachs examined for the presence of lesions. All drugs were dissolved in dilute NaOH. After sacrifice the abdomen is opened and a locking hemostat placed at the pylorus. 6 ml. of a 4% solution of formaldehyde was injected into the stomach with a gastric feeding tube and a second locking hemostat was used to seal the esophagus. The stomach was removed, opened along the greater curvature and examined for ulceration.
The scoring system used to quantitate the ethanol-induced lesions is given below.
For each group of animals an ulcer index is calculated as follows:
Ulceration Index=(the sum of the scores of the group)×(the sum of the number of ulcers in the group)×(the fraction of the group having any incidence of ulceration).
The percentage inhibition of ulcers is calculated as follows:
% Inhibition=100×[(ulcer index controls)-(ulcer index drug-treated)].div.(ulcer index controls).

[3] = Cardiovascular effects in anesthetized dogs; type: in vivo, dog; details: dog, in vivo; cumulative intravenous doses; read-out: ratio of cardiovascular-effect dose to maximally effective intravenous antiallergy dose
[4] = system: blood pressure, heart rate and pressor responses; experiment: Cardiovascular effects in anesthetized dogs; type: in vivo, dog; details: cumulative 5 and 15 mg/kg, i.v.
[5] = system: dogs; experiment: Toleration study, oral, seven days, dogs; type: in vivo, dog
Procedure: In toleration studies, III were given orally by gavage to dogs for a period of seven days at doses of 50, 150 and 300 mg/kg/day.

[6] = oral, 7 days, 50, 150 and 300 mg/kg/day

O=C(Nc1nnn[nH]1)c1cnc2sc3c(n2c1=O)CCCC3 [Compound III, N-(5-Tetrazolyl)-1-oxo-1H-cyclohexenothiazolo[3,2-a]pyrimidine-2-carboxamide]
oral dose range of dose-related protection, cold-restraint stress ([1]; oral): 3 to 100 µg/kg
potency in cold-restraint stress gastric ulcer procedure ([1]; rat, in vivo): extremely potent; also recorded: highly potent
% Inhibition in the Ethanol-Induced Rat Ulcer Assay, amides [2]: 97% and 81%
selectivity ratio [3]: 5 to 15
blood pressure [4]: transient hypotension
heart rate [4]: variable changes in heart rate
pressor responses to epinephrine and bilateral carotid occlusion [4]: diminished slightly
emetic effect, capsule after meals ([5]; capsule after, rather than before, meals): could be eliminated
gross pathological changes [5, 6]: No gross pathological changes were observed
microscopic examination of liver, kidney, heart and lung [5, 6]: did not reveal any changes
